Measurements from PubChem BioAssay AID1963860 (Molecular Pharmacology Branch, DTP, NCI, 2024).
Calls of active or inactive are those of the source. Rule for the calls: active = viability on the fitted dose curve at most 10% of control; inactive = the rest.

System: CN0375-F725-PDC KRAS spheroid viability
Experiment: Anticancer human tumor CN0375-F725-PDC patient-derived colon carcinoma cell line growth inhibition [KRAS2]
Conditions: spheroids with HUVEC and MSC; for IC50: curve of first compound; for viability, T/C: stronger effect = lower value
Outline: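 KRAS-mutant tumor cells were grown as spheroids with HUVEC endothelial cells and human MSCs as stroma. Targeted agents were tested alone and with KRAS pathway inhibitors. Doses started at or near clinical Cmax, or 10 microM, descending half-log.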

[1] = second compound 0.1 µM, first compound 0.0316 µM
[2] = second compound 0.1 µM, first compound 0.1 µM
[3] = second compound 0.1 µM, first compound 0.316 µM
[4] = second compound 0.1 µM, first compound 1 µM
[5] = second compound 0.1 µM, first compound 3.16 µM
[6] = second compound 0.316 µM, first compound 0.0316 µM
[7] = second compound 0.316 µM, first compound 0.1 µM
[8] = second compound 0.316 µM, first compound 0.316 µM
[9] = second compound 0.316 µM, first compound 1 µM
[10] = second compound 0.316 µM, first compound 3.16 µM
[11] = second compound 1 µM, first compound 0.0316 µM
[12] = second compound 1 µM, first compound 0.1 µM
[13] = second compound 1 µM, first compound 0.316 µM
[14] = second compound 1 µM, first compound 1 µM
[15] = second compound 1 µM, first compound 3.16 µM
[16] = second compound 3.16 µM, first compound 0.0316 µM
[17] = second compound 3.16 µM, first compound 0.1 µM
[18] = second compound 3.16 µM, first compound 0.316 µM
[19] = second compound 3.16 µM, first compound 1 µM
[20] = second compound 3.16 µM, first compound 3.16 µM
[21] = second compound 10 µM, first compound 0.0316 µM
[22] = second compound 10 µM, first compound 0.1 µM
[23] = second compound 10 µM, first compound 0.316 µM
[24] = second compound 10 µM, first compound 1 µM
[25] = second compound 10 µM, first compound 3.16 µM
[26] = second compound 0.1 µM, first compound 0.01 µM
[27] = second compound 0.316 µM, first compound 0.01 µM
[28] = second compound 1 µM, first compound 0.01 µM
[29] = second compound 3.16 µM, first compound 0.01 µM
[30] = second compound 10 µM, first compound 0.01 µM
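Note: spheroids exposed to agents for 7 days.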

## Cn1nccc1Nc1nccc(-c2cc3c(s2)C(C)(C)N(CCN2CCOCC2)C3=O)n1 + CC1OCC2(CCN(c3cnc(Sc4ccnc(N)c4Cl)c(N)n3)CC2)C1N
Second compound 0.1 µM
  IC50: 2330 nM
Second compound 0.316 µM
  IC50: 1070 nM
Second compound 1 µM
  IC50: 661 nM
Second compound 3.16 µM
  IC50: 341 nM
Second compound 10 µM
  IC50: 209 nM
[1]
  viability, T/C: 98.5%
[2]
  viability, T/C: 83.1%
[3]
  viability, T/C: 69.8%
[4]
  viability, T/C: 58.7%
[5]
  viability, T/C: 47.5%
Second compound 0.1 µM, first compound 10 µM
  viability, T/C: 36.7%
[6]
  viability, T/C: 88.8%
[7]
  viability, T/C: 78.1%
[8]
  viability, T/C: 60.4%
[9]
  viability, T/C: 51.8%
[10]
  viability, T/C: 42.1%
Second compound 0.316 µM, first compound 10 µM
  viability, T/C: 36.3%
[11]
  viability, T/C: 81.2%
[12]
  viability, T/C: 81.9%
[13]
  viability, T/C: 60.1%
[14]
  viability, T/C: 45.3%
[15]
  viability, T/C: 37.1%
Second compound 1 µM, first compound 10 µM
  viability, T/C: 35.9%
[16]
  viability, T/C: 74.7%
[17]
  viability, T/C: 65.5%
[18]
  viability, T/C: 52.1%
[19]
  viability, T/C: 36.4%
[20]
  viability, T/C: 33.7%
Second compound 3.16 µM, first compound 10 µM
  viability, T/C: 31.5%
[21]
  viability, T/C: 62.7%
[22]
  viability, T/C: 63.3%
[23]
  viability, T/C: 42.8%
[24]
  viability, T/C: 31.9%
[25]
  viability, T/C: 28.9%
Second compound 10 µM, first compound 10 µM
  viability, T/C: 28.3%

## CC(=O)OC12COC1CC(O)C1(C)C(=O)C(O)C3=C(C)C(OC(=O)C(O)C(NC(=O)OC(C)(C)C)c4ccccc4)CC(O)(C(OC(=O)c4ccccc4)C21)C3(C)C (stereo not given) + CNCc1ccccc1-c1csc(C(C)Nc2nc(C)nc3cc(OC)c(OC)cc23)c1
Second compound 0.1 µM
  IC50: > 3160 nM
Second compound 0.316 µM
  IC50: > 3160 nM
Second compound 1 µM
  IC50: > 3160 nM
Second compound 3.16 µM
  IC50: < 10 nM
Second compound 10 µM
  IC50: < 10 nM
[26]
  viability, T/C: 96.2%
[1]
  viability, T/C: 97.7%
[2]
  viability, T/C: 80.7%
[3]
  viability, T/C: 82.5%
[4]
  viability, T/C: 80.4%
[5]
  viability, T/C: 74.2%
[27]
  viability, T/C: 92.8%
[6]
  viability, T/C: 89.4%
[7]
  viability, T/C: 77.5%
[8]
  viability, T/C: 74.7%
[9]
  viability, T/C: 78.5%
[10]
  viability, T/C: 66.8%
[28]
  viability, T/C: 101%
[11]
  viability, T/C: 99.7%
[12]
  viability, T/C: 91.8%
[13]
  viability, T/C: 84%
[14]
  viability, T/C: 77.4%
[15]
  viability, T/C: 78%
[29]
  viability, T/C: 1.13%
[16]
  viability, T/C: 100%
[17]
  viability, T/C: 0.66%
[18]
  viability, T/C: 0.86%
[19]
  viability, T/C: 1.34%
[20]
  viability, T/C: 79.3%
[30]
  viability, T/C: 0.72%
[21]
  viability, T/C: 0.57%
[22]
  viability, T/C: 0.77%
[23]
  viability, T/C: 0.24%
[24]
  viability, T/C: 0.62%
[25]
  viability, T/C: 0.25%

## CN(C)C/C=C/C(=O)Nc1cc2c(Nc3ccc(F)c(Cl)c3)ncnc2cc1O[C@H]1CCOC1 + CNCc1ccccc1-c1csc(C(C)Nc2nc(C)nc3cc(OC)c(OC)cc23)c1
Second compound 0.1 µM
  IC50: > 100 nM
Second compound 0.316 µM
  IC50: > 100 nM
Second compound 1 µM
  IC50: 77.3 nM
Second compound 3.16 µM
  IC50: 1.8 nM
Second compound 10 µM
  IC50: < 0.316 nM
Second compound 0.1 µM, first compound 0.000316 µM
  viability, T/C: 97.1%
Second compound 0.1 µM, first compound 0.001 µM
  viability, T/C: 95.9%
Second compound 0.1 µM, first compound 0.00316 µM
  viability, T/C: 83.1%
[26]
  viability, T/C: 86.4%
[1]
  viability, T/C: 78.4%
[2]
  viability, T/C: 74.2%
Second compound 0.316 µM, first compound 0.000316 µM
  viability, T/C: 94.8%
Second compound 0.316 µM, first compound 0.001 µM
  viability, T/C: 88.3%
Second compound 0.316 µM, first compound 0.00316 µM
  viability, T/C: 78.3%
[27]
  viability, T/C: 74.6%
[6]
  viability, T/C: 76.1%
[7]
  viability, T/C: 70.5%
Second compound 1 µM, first compound 0.000316 µM
  viability, T/C: 76.3%
Second compound 1 µM, first compound 0.001 µM
  viability, T/C: 67.6%
Second compound 1 µM, first compound 0.00316 µM
  viability, T/C: 53.1%
[28]
  viability, T/C: 54.8%
[11]
  viability, T/C: 60.4%
[12]
  viability, T/C: 43.6%
Second compound 3.16 µM, first compound 0.000316 µM
  viability, T/C: 99.2%
Second compound 3.16 µM, first compound 0.001 µM
  viability, T/C: 102%
Second compound 3.16 µM, first compound 0.00316 µM
  viability, T/C: 0.46%
[29]
  viability, T/C: 0.32%
[16]
  outcome: active
[17]
  viability, T/C: 3.19%
Second compound 10 µM, first compound 0.000316 µM
  viability, T/C: 0.26%
Second compound 10 µM, first compound 0.001 µM
  viability, T/C: 0.23%
Second compound 10 µM, first compound 0.00316 µM
  viability, T/C: 0.35%
[30]
  viability, T/C: 0.73%
[21]
  viability, T/C: 0.29%
[22]
  viability, T/C: 0.22%
